Tests used:
[1] = test system: harmful plants such as Stellaria media, Lolium multiforum, Amaranthus retroflexus, Sinapis alba, Avena sativa and Setaria viridis; experiment: Pre-emergence effect on weeds (greenhouse pot test); format: in vivo; conditions: application rate of 1 kg or less of active ingredient per hectare; scored after 3 to 4 weeks by comparison with untreated controls
Source text: Seeds or rhizome pieces of monocotyledonous and dicotyledonous weed plants were placed in sandy loam in plastic pots and covered with soil. The compounds according to the invention, which were formulated in the form of wettable powders or emulsion concentrates, were then applied to the surface of the soil cover as aqueous suspension or emulsion at various dosages with an application rate of 600 to 800 l of water per ha (converted).
After the treatment, the pots were placed into a greenhouse and kept under good growth conditions for the weeds. The plant or emergence damage was scored visually after the test plants have emerged after an experimental time of 3 to 4 weeks by comparison with untreated controls.

[2] = test system: harmful plants such as Sinapis alba, Echinochloa crus-galli, Lolium multiflorum, Stellaria media, Cyperus iria, Amaranthus retroflexus, Setaria viridis, Avena …; experiment: Post-emergence effect on weeds (greenhouse pot test); format: in vivo; conditions: application rate of 2 kg or less of active ingredient per hectare; treated in the three-leaf stage; scored after approx. 3 to 4 weeks by comparison with untreated controls

SMILES | pre-emergence control of harmful plants (plant or emergence damage scored visually) [1] | herbicidal post-emergence activity against harmful plants (scored visually) [2]
CCc1nc(N)nc(N[C@H]2c3cc(C)ccc3C[C@@H]2C)n1 [Compound 7.75] | very good pre-emergence control | very good herbicidal post-emergence activity
CCc1nc(N)nc(N[C@H]2c3ccccc3CC[C@@H]2C)n1 [Compound 7.78] | very good pre-emergence control | very good herbicidal post-emergence activity
C[C@H]1CCc2ccccc2[C@@H]1Nc1nc(N)nc(C(C)(C)F)n1 [Compound 7.203] | very good pre-emergence control | very good herbicidal post-emergence activity
C[C@H]1Cc2ccccc2[C@@H]1Nc1nc(N)nc(C(C)(C)F)n1 [Compound 7.228] | very good pre-emergence control | very good herbicidal post-emergence activity
Cc1ccc2c(c1)[C@H](Nc1nc(N)nc(C(C)(C)F)n1)[C@@H](C)C2 [Compound 7.229] | very good pre-emergence control | very good herbicidal post-emergence activity
Cc1ccc2c(c1)[C@H](Nc1nc(N)nc(CCSC(F)(F)F)n1)[C@@H](C)C2 [Compound 7.238] | very good pre-emergence control | very good herbicidal post-emergence activity
C[C@H]1Cc2ccccc2[C@@H]1Nc1nc(N)nc(C(F)(F)F)n1 [Compound 7.239] | very good pre-emergence control | very good herbicidal post-emergence activity
Cc1ccc2c(c1)[C@H](Nc1nc(N)nc(C(F)(F)F)n1)[C@@H](C)C2 [Compound 7.240] | very good pre-emergence control | very good herbicidal post-emergence activity
C[C@H]1Cc2ccccc2[C@@H]1Nc1nc(N)nc(CCSC(F)(F)F)n1 [Compound 7.241] | very good pre-emergence control | very good herbicidal post-emergence activity
C[C@H]1Cc2ccccc2[C@@H]1Nc1nc(N)nc(CC#N)n1 [Compound 7.242] | very good pre-emergence control | very good herbicidal post-emergence activity
C[C@H]1Cc2ccccc2[C@@H]1Nc1nc(N)nc(C(F)F)n1 [Compound 7.244] | very good pre-emergence control | very good herbicidal post-emergence activity
Cc1ccc2c(c1)[C@H](Nc1nc(C)nc(N)n1)CC2 [Compound 8.2] | very good pre-emergence control | very good herbicidal post-emergence activity
Cc1nc(N)nc(N[C@@H]2CCc3ccc(F)cc32)n1 [Compound 8.3] | very good pre-emergence control | very good herbicidal post-emergence activity
Cc1nc(N)nc(N[C@@H]2CCc3cc(C)c(C)cc32)n1 [Compound 8.7] | very good pre-emergence control | very good herbicidal post-emergence activity
Cc1nc(N)nc(N[C@@H]2CCCc3ccccc32)n1 [Compound 8.11] | very good pre-emergence control | very good herbicidal post-emergence activity
Cc1ccc2c(c1)[C@H](Nc1nc(C)nc(N)n1)CCC2 [Compound 8.12] | very good pre-emergence control | very good herbicidal post-emergence activity
Cc1cc(C)c2c(c1)[C@H](Nc1nc(C)nc(N)n1)CCC2 [Compound 8.15] | very good pre-emergence control | very good herbicidal post-emergence activity
Cc1ccc2c(c1)[C@H](Nc1nc(C)nc(N)n1)CCO2 [Compound 8.21] | very good pre-emergence control | very good herbicidal post-emergence activity
CCc1nc(N)nc(N[C@@H]2CCc3ccccc32)n1 [Compound 8.24] | very good pre-emergence control | very good herbicidal post-emergence activity

SMILES | pre-emergence control of harmful plants (plant or emergence damage scored visually) [1] | herbicidal post-emergence activity against harmful plants (scored visually) [2]
CCc1nc(N)nc(N[C@@H]2CCc3ccc(C)cc32)n1 [Compound 8.25] | very good pre-emergence control | very good herbicidal post-emergence activity
CCc1nc(N)nc(N[C@@H]2CCc3ccc(F)cc32)n1 [Compound 8.26] | very good pre-emergence control | very good herbicidal post-emergence activity
CCc1nc(N)nc(N[C@@H]2CCCc3ccccc32)n1 [Compound 8.34] | very good pre-emergence control | very good herbicidal post-emergence activity
CCc1nc(N)nc(N[C@@H]2CCCc3ccc(C)cc32)n1 [Compound 8.35] | very good pre-emergence control | very good herbicidal post-emergence activity
CCc1nc(N)nc(N[C@@H]2CCCc3c(C)cc(C)cc32)n1 [Compound 8.38] | very good pre-emergence control | very good herbicidal post-emergence activity
CCc1nc(N)nc(N[C@@H]2CCOc3ccc(C)cc32)n1 [Compound 8.44] | very good pre-emergence control | very good herbicidal post-emergence activity
CCCc1nc(N)nc(N[C@@H]2CCc3ccc(C)cc32)n1 [Compound 8.48] | very good pre-emergence control | very good herbicidal post-emergence activity
CCCc1nc(N)nc(N[C@@H]2CCc3ccc(F)cc32)n1 [Compound 8.49] | very good pre-emergence control | very good herbicidal post-emergence activity
CCCc1nc(N)nc(N[C@@H]2CCCc3ccc(C)cc32)n1 [Compound 8.58] | very good pre-emergence control | very good herbicidal post-emergence activity
CCCc1nc(N)nc(N[C@@H]2CCCc3c(C)cc(C)cc32)n1 [Compound 8.61] | very good pre-emergence control | very good herbicidal post-emergence activity
Cc1ccc2c(c1)[C@H](Nc1nc(N)nc(C(C)C)n1)CC2 [Compound 8.67] | very good pre-emergence control | very good herbicidal post-emergence activity
CC(C)c1nc(N)nc(N[C@@H]2CCc3ccc(F)cc32)n1 [Compound 8.68] | very good pre-emergence control | very good herbicidal post-emergence activity
Cc1ccc2c(c1)[C@H](Nc1nc(N)nc(C(C)C)n1)CCC2 [Compound 8.71] | very good pre-emergence control | very good herbicidal post-emergence activity
Cc1ccc2c(c1)[C@H](Nc1nc(N)nc(C(C)C)n1)CCO2 [Compound 8.75] | very good pre-emergence control | very good herbicidal post-emergence activity
Cc1ccc2c(c1)[C@H](Nc1nc(N)nc(C(C)(Cl)Cl)n1)CC2 [Compound 8.79] | very good pre-emergence control | very good herbicidal post-emergence activity
Nc1nc(CF)nc(N[C@@H]2CCc3ccccc32)n1 [Compound 8.90] | very good pre-emergence control | very good herbicidal post-emergence activity
Nc1nc(CF)nc(N[C@@H]2CCCc3ccccc32)n1 [Compound 8.100] | very good pre-emergence control | very good herbicidal post-emergence activity
Nc1nc(CCl)nc(N[C@@H]2CCc3ccccc32)n1 [Compound 8.113] | very good pre-emergence control | very good herbicidal post-emergence activity
